According to the NIST ThermoML archive (doi:10.1016/j.fluid.2019.04.036):

Settings: Liquid, Transpiration method

CCCCN(C=O)CCCC [N,N-dibutylformamide]
Settings | vapor or sublimation pressure [kPa]
293.1 K | 0.0026
295.8 K | 0.00329
296.9 K | 0.00365
298 K | 0.004
298.7 K | 0.00421
298.9 K | 0.00438
299.3 K | 0.00469
301.4 K | 0.00534
304.5 K | 0.00695
304.6 K | 0.00705
304.8 K | 0.00709
308.3 K | 0.0097
308.7 K | 0.01006
309.9 K | 0.01103
310.7 K | 0.01193
311.6 K | 0.01265
312.5 K | 0.01383
313.3 K | 0.01469
314.7 K | 0.01666
315.1 K | 0.01677
315.3 K | 0.01776
318.2 K | 0.0217
318.4 K | 0.02183
320.5 K | 0.0256
321.1 K | 0.02589
322.6 K | 0.03097
322.8 K | 0.03141
323.8 K | 0.03251
325.8 K | 0.03894
326.8 K | 0.04037
329.4 K | 0.04901
329.6 K | 0.04927
334.7 K | 0.0724

CCN(C=O)CC [N,N-diethylformamide]
Settings | vapor or sublimation pressure [kPa]
288.8 K | 0.0751
292.2 K | 0.0961
295.1 K | 0.1173
300.5 K | 0.1677
300.7 K | 0.169
303.7 K | 0.211
305.7 K | 0.2482
310.7 K | 0.3265
315.7 K | 0.4646
320.8 K | 0.6274
323.2 K | 0.7094
325.8 K | 0.8534
330.9 K | 1.093
335.9 K | 1.479
338.5 K | 1.733
340.9 K | 1.948
346 K | 2.46
348.5 K | 2.893
350.9 K | 3.209
356.1 K | 4.164

CCCN(C=O)CCC [N,N-dipropylformamide]
Settings | vapor or sublimation pressure [kPa]
278.5 K | 0.00516
282.4 K | 0.00741
283.4 K | 0.00814
285.1 K | 0.00949
288.2 K | 0.01246
290.2 K | 0.01527
292.2 K | 0.01766
294.8 K | 0.02239
295.8 K | 0.02392
296.5 K | 0.02608
298.4 K | 0.03075
299.4 K | 0.03131
301.2 K | 0.03699
302.9 K | 0.04152
305.1 K | 0.05251
306.1 K | 0.05391
307.2 K | 0.05892
308.2 K | 0.06219
310.4 K | 0.07592
311.3 K | 0.08121
313.4 K | 0.09479
315.4 K | 0.113
316.4 K | 0.1145
318.5 K | 0.1321
319.4 K | 0.1476

CCCCNC=O [N-butylformamide]
Settings | vapor or sublimation pressure [kPa]
297.1 K | 0.00293
298.2 K | 0.00321
299.3 K | 0.00349
301.2 K | 0.00422
304.2 K | 0.0056
307.2 K | 0.00731
310.2 K | 0.00912
314.1 K | 0.01307
316.2 K | 0.01498
317.8 K | 0.01763
318.2 K | 0.01802
320.2 K | 0.02208
323.1 K | 0.02695
326.2 K | 0.03461
329.1 K | 0.04093
331.2 K | 0.05017
334.2 K | 0.06336
337.1 K | 0.07893
340.2 K | 0.09365
343.2 K | 0.1151
346.2 K | 0.1403
349.1 K | 0.1719
352.2 K | 0.208

CN(C)C=O [dimethylformamide]
Settings | vapor or sublimation pressure [kPa]
276.3 K | 0.1229
279.3 K | 0.1498
281.2 K | 0.1752
283.1 K | 0.1994
285.3 K | 0.2375
289.3 K | 0.314
291.3 K | 0.3569
293.3 K | 0.4045
296.3 K | 0.4849
299.5 K | 0.5941
302.2 K | 0.6949
305.2 K | 0.847
